# Results: patent US4522815A, “Anthracycline glycosides” (priority 1982, dated 1985)
# Like-named read-outs stand apart in the source and are kept apart here.
# Tests used:
# [1] = system: HeLa cells; assay: Colony inhibition test against HeLa cells in vitro (cloning efficiency), treatment for 24 hrs; format: cell-based; conditions: for activity at 0.0015 µg/mL: 1.5 ng/ml; for activity at 0.0062 µg/mL: 6.2 ng/ml; for activity at 0.025 µg/mL: 25 ng/ml; for activity at 0.1 µg/mL: 100 ng/ml; for IC50: HeLa colony inhibition; for activity at 0.0125 µg/mL: 12.5 ng/ml
# [2] = system: ascitic P388 leukemia; assay: Antitumor activity against ascitic P388 leukemia in CDF-1 mice, treatment i.p. on day 1; format: in vivo
# Experimental: The primary screening […] was carried out in CDF-1 mice bearing ascitic P388 leukemia (10^6 cells/mouse). Both IIa and IIc were suspended in 10%. Tween 80 and injected intraperitoneally.
# Results of the primary screening "in vivo" carried out in CDF-1 mice bearing P388 ascitic leukemia and treated i.p. the day after tumor transplantation, are reported in Table 5.
# Antitumor activity against ascitic P388 leukekemia.
# (§1) Treatment i.p. on day 1.
# ^a median survival time; % over untreated controls
# ^b long term survivors (≥ 60 days)
# ^c evaluated on the basis of autoptic findings on dead mice
# (§2) ^d data of two experiments (range)
# ^e date of three experiments (range)
# Antitumor activity of Ib and Id against ascitic P388
# as §1
# [3] = system: Gross leukemia; assay: Antitumor activity against i.v. transplanted Gross leukemia in C3H/Me mice, treatment i.v. on day 1; format: in vivo; conditions: for T/C, median survival time; % over untreated controls / Toxic deaths: Table 6
# From the text: (§3) Results of studies performed in C3H/Me mice carrying i.v. transplanted Gross leukemia and treated i.v. the day after tumor transplantation, are reported in Table 6. […] The compounds Ib and Id were further investigated for oral activity on Gross leukemic transplanted i.v., in comparison with DNR, DX given i.v. and 4-dm DNR given oral route.
# Antitumor activity against i.v. Gross leukemia.
# Treatment i.v. on day 1.
# [4] = system: Gross leukemia; assay: Oral activity against i.v. transplanted Gross leukemia (i.v. comparators); format: in vivo, C3H/Me mice; conditions: for T/C %, median survival time / Toxic deaths: Table 7
# From the text: as §3
# Oral activity of Ib and Id against Gross leukemia
# ^a days after transplantation
# as §2
# [5] = Homo sapiens, HeLa, Table 1, 24 hrs, read-out: No of colonies, % of untreated controls
# [6] = Table 2, 30 mg/kg i.p. day 1, two experiments
# [7] = Homo sapiens, HeLa, Table 3, 24 hrs, read-out: No of colonies, % of untreated controls
# [8] = Homo sapiens, HeLa, 24 h, read-out: No of colonies, % of untreated controls, Table 1, 24 hrs
# [9] = Homo sapiens, HeLa, 24 h, read-out: No of colonies, % of untreated controls, Table 3, 24 hrs
# [10] = Table 2, 4.4 mg/kg i.p. day 1, two experiments
# [11] = Table 2, 6.6 mg/kg i.p. day 1, two (DNR) or three (DX) experiments
# [12] = Table 2, 10 mg/kg i.p. day 1, three experiments
# [13] = Table 5, 4.4 mg/kg i.p. day 1, DNR: two experiments
compound,measurement,setting,value
"COc1cccc2c1C(=O)c1c(O)c3c(c(O)c1C2=O)C[C@@](O)(C(=O)CO)C[C@@H]3O[C@H]1C=C[C@@H](O)[C@H](C)O1 [Compound IIc, 7-0-(2,3,6-trideoxy-α-L-erythro-hex-2-enopyranosyl)-adriamycinone]",times less cytotoxic than DX,"[1]; HeLa cells cloning efficiency, vs DX",about 5 times
same,activity at 0.0015 µg/mL,[1]; [5],86%
same,activity at 0.0062 µg/mL,[1]; [5],68%
same,activity at 0.025 µg/mL,[1]; [5],65%
same,activity at 0.1 µg/mL,[1]; [5],33%
same,activity at 0.4 µg/mL,"[1]; Homo sapiens, HeLa, Table 1, 400 ng/ml, 24 hrs, read-out: No of colonies, % of untreated controls",4%
same,IC50,"[1]; Homo sapiens, Table 1, 24 hrs, read-out: ID50 (the source's name)",~50 ng/mL
same,"LTS, long term survivors (≥ 60 days)","[2]; Table 2, 17.6 mg/kg i.p. day 1",0/8
same,"T/C, median survival time; % over untreated controls","[2]; Table 2, 17.6 mg/kg i.p. day 1",118%
same,Toxic deaths (autoptic findings on dead mice),"[2]; Table 2, 17.6 mg/kg i.p. day 1",0/8
same,"LTS, long term survivors (≥ 60 days)","[2]; Table 2, 23 mg/kg i.p. day 1",0/7
same,"T/C, median survival time; % over untreated controls","[2]; Table 2, 23 mg/kg i.p. day 1",127%
same,Toxic deaths (autoptic findings on dead mice),"[2]; Table 2, 23 mg/kg i.p. day 1",0/7
same,"LTS, long term survivors (≥ 60 days)",[2]; [6],0/17
same,Toxic deaths (autoptic findings on dead mice),[2]; [6],0/17
same,"T/C, median survival time; % over untreated controls","[2]; Table 2, 30 mg/kg i.p. day 1, two experiments (range)",125-136%
same,"LTS, long term survivors (≥ 60 days)","[2]; Table 2, 45 mg/kg i.p. day 1",0/10
same,"T/C, median survival time; % over untreated controls","[2]; Table 2, 45 mg/kg i.p. day 1",130%
same,Toxic deaths (autoptic findings on dead mice),"[2]; Table 2, 45 mg/kg i.p. day 1",0/10
same,"LTS, long term survivors (≥ 60 days)","[2]; Table 2, 67.5 mg/kg i.p. day 1",0/10
same,"T/C, median survival time; % over untreated controls","[2]; Table 2, 67.5 mg/kg i.p. day 1",140%
same,Toxic deaths (autoptic findings on dead mice),"[2]; Table 2, 67.5 mg/kg i.p. day 1",0/10
same,"LTS, long term survivors (≥ 60 days)","[2]; Table 2, 100 mg/kg i.p. day 1",0/7
same,"T/C, median survival time; % over untreated controls","[2]; Table 2, 100 mg/kg i.p. day 1",150%
same,Toxic deaths (autoptic findings on dead mice),"[2]; Table 2, 100 mg/kg i.p. day 1",0/7
same,toxicity and potency vs parent drugs DNR and DX,"[2]; ascitic P388, i.p.",less toxic and potent than the parent drugs DNR and DX
same,antitumor activity on P388 ascitic leukemia,"[2]; i.p. day 1, IIa: two doses tested incl. Mx TD","a certain antitumor activity, which is lower than that of DX"
"C[C@@H]1O[C@@H](O[C@H]2C[C@](O)(C(=O)CO)Cc3c(O)c4c(c(O)c32)C(=O)c2ccccc2C4=O)C[C@H](O)[C@H]1O [Compound Id, 4-demethoxy-7-0-(2,6-dideoxy-α-L-arabino-hexopyranosyl)-adriamycinone]","antitumor activity, comparison of the Mx TD","[3]; Gross leukemia, i.v. day 1","good antitumor activity, which is of the same order of magnitude as that of DX"
same,toxicity and potency vs parent compounds,"[3]; Gross leukemia, i.v. day 1",more toxic and more potent than the parent compounds
same,"T/C, median survival time; % over untreated controls",[3]; 1.2 mg/kg i.v. day 1,171%
same,Toxic deaths,[3]; 1.2 mg/kg i.v. day 1,1/10
same,"T/C, median survival time; % over untreated controls",[3]; 2.16 mg/kg i.v. day 1,200%
same,Toxic deaths,[3]; 2.16 mg/kg i.v. day 1,1/10
same,"T/C, median survival time; % over untreated controls",[3]; 3.8 mg/kg i.v. day 1,114%
same,Toxic deaths,[3]; 3.8 mg/kg i.v. day 1,5/9
same,cytotoxicity in comparison with DX,[1]; HeLa cells cloning efficiency,as cytotoxic as DX
same,activity at 0.0015 µg/mL,[1]; [7],106%
same,activity at 0.0062 µg/mL,[1]; [7],59%
same,activity at 0.025 µg/mL,[1]; [7],0%
same,activity at 0.1 µg/mL,[1]; [7],0%
same,IC50,"[1]; Homo sapiens, Table 3, 24 hrs, read-out: ID50 (the source's name)",~7 ng/mL
same,"T/C %, median survival time","[4]; oral +1, 1.2 mg/kg",171%
same,Toxic deaths,"[4]; oral +1, 1.2 mg/kg",0/9
same,"T/C %, median survival time","[4]; oral +1, 2.1 mg/kg",185%
same,Toxic deaths,"[4]; oral +1, 2.1 mg/kg",0/8
same,"T/C %, median survival time","[4]; oral +1, 3.8 mg/kg",214%
same,Toxic deaths,"[4]; oral +1, 3.8 mg/kg",3/8
same,"T/C %, median survival time","[4]; oral days 1,2,3, 0.48 mg/kg",183%
same,Toxic deaths,"[4]; oral days 1,2,3, 0.48 mg/kg",0/10
same,"T/C %, median survival time","[4]; oral days 1,2,3, 0.62 mg/kg",208%
same,Toxic deaths,"[4]; oral days 1,2,3, 0.62 mg/kg",0/10
same,Toxic deaths,"[4]; oral days 1,2,3, 0.8 mg/kg, two experiments",2/20
same,"T/C %, median survival time","[4]; oral days 1,2,3, 0.8 mg/kg, two experiments (range)",233-258%
same,antitumor activity given orally at day 1,"[4]; oral day 1, Gross leukemia, Id at the Mx TD vs DX i.v.",less active than DX i.v.
same,"antitumor activity given orally days 1,2,3","[4]; oral days 1,2,3, vs DX i.v.",higher than that of DX given i.v.
same,"LTS, long term survivors (≥ 60 days)","[2]; Table 5, 1.12 mg/kg i.p. day 1",0/10
same,"T/C, median survival time; % over untreated controls","[2]; Table 5, 1.12 mg/kg i.p. day 1",170%
same,Toxic deaths (autoptic findings on dead mice),"[2]; Table 5, 1.12 mg/kg i.p. day 1",0/10
same,"LTS, long term survivors (≥ 60 days)","[2]; Table 5, 1.68 mg/kg i.p. day 1",0/10
same,"T/C, median survival time; % over untreated controls","[2]; Table 5, 1.68 mg/kg i.p. day 1",185%
same,Toxic deaths (autoptic findings on dead mice),"[2]; Table 5, 1.68 mg/kg i.p. day 1",0/10
same,"LTS, long term survivors (≥ 60 days)","[2]; Table 5, 2.53 mg/kg i.p. day 1",1/10
same,"T/C, median survival time; % over untreated controls","[2]; Table 5, 2.53 mg/kg i.p. day 1",230%
same,Toxic deaths (autoptic findings on dead mice),"[2]; Table 5, 2.53 mg/kg i.p. day 1",2/10
same,times more potent than DX,"[2]; ascitic P388, i.p. day 1",about 5 times
same,antileukemia activity against P388 leukemia,[2]; vs DX,good but lower than that of DX
"COc1cccc2c1C(=O)c1c(O)c3c(c(O)c1C2=O)C[C@@](O)(C(=O)CO)C[C@@H]3O[C@H]1C[C@H](N)[C@H](O)[C@H](C)O1 [DX, doxorubicin, reference compound]","T/C, median survival time; % over untreated controls",[3]; 10 mg/kg i.v. day 1,171%
same,Toxic deaths,[3]; 10 mg/kg i.v. day 1,0/10
same,"T/C, median survival time; % over untreated controls",[3]; 13 mg/kg i.v. day 1,200%
same,Toxic deaths,[3]; 13 mg/kg i.v. day 1,0/10
same,"T/C, median survival time; % over untreated controls",[3]; 16.9 mg/kg i.v. day 1,207%
same,Toxic deaths,[3]; 16.9 mg/kg i.v. day 1,3/10
same,IC50,"[1]; Homo sapiens, HeLa, 24 h, read-out: ID50, Table 1, 24 hrs",~10 ng/mL
same,IC50,"[1]; Homo sapiens, HeLa, 24 h, read-out: ID50, Table 3, 24 hrs",~7.5 ng/mL
same,activity at 0.0062 µg/mL,[1]; [8],69%
same,activity at 0.0125 µg/mL,[1]; [8],40%
same,activity at 0.025 µg/mL,[1]; [8],24%
same,activity at 0.0062 µg/mL,[1]; [9],59%
same,activity at 0.0125 µg/mL,[1]; [9],28%
same,activity at 0.025 µg/mL,[1]; [9],0%
same,Toxic deaths,"[4]; i.v. +1, 10 mg/kg, two experiments",1/20
same,"T/C %, median survival time","[4]; i.v. +1, 10 mg/kg, two experiments (range)",171-171%
same,Toxic deaths,"[4]; i.v. +1, 13 mg/kg, two experiments",1/20
same,"T/C %, median survival time","[4]; i.v. +1, 13 mg/kg, two experiments (range)",200-200%
same,Toxic deaths,"[4]; i.v. +1, 16.9 mg/kg, two experiments",3/13
same,"T/C %, median survival time","[4]; i.v. +1, 16.9 mg/kg, two experiments (range)",200-207%
same,"T/C, median survival time; % over untreated controls","[2]; Table 2, 4.4 mg/kg i.p. day 1, data of two experiments (range)",220-227%
same,"LTS, long term survivors (≥ 60 days)",[2]; [10],2/18
same,Toxic deaths (autoptic findings on dead mice),[2]; [10],0/18
same,"T/C, median survival time; % over untreated controls","[2]; Table 2, 6.6 mg/kg i.p. day 1, range of two (DNR) or three (DX) experiments",227-305%
same,"LTS, long term survivors (≥ 60 days)",[2]; [11],2/26
same,Toxic deaths (autoptic findings on dead mice),[2]; [11],0/26
same,"LTS, long term survivors (≥ 60 days)",[2]; [12],7/26
same,Toxic deaths (autoptic findings on dead mice),[2]; [12],3/26
same,"LTS, long term survivors (≥ 60 days)",[2]; [13],1/10
same,Toxic deaths (autoptic findings on dead mice),[2]; [13],0/10
same,"T/C, median survival time; % over untreated controls","[2]; Table 5, 4.4 mg/kg i.p. day 1, DNR: two experiments (range)",220%
same,"LTS, long term survivors (≥ 60 days)","[2]; Table 5, 6.6 mg/kg i.p. day 1",0/10
same,"T/C, median survival time; % over untreated controls","[2]; Table 5, 6.6 mg/kg i.p. day 1",305%
same,Toxic deaths (autoptic findings on dead mice),"[2]; Table 5, 6.6 mg/kg i.p. day 1",0/10
same,"LTS, long term survivors (≥ 60 days)","[2]; Table 5, 10 mg/kg i.p. day 1",5/10
same,"T/C, median survival time; % over untreated controls","[2]; Table 5, 10 mg/kg i.p. day 1",> 610%
same,Toxic deaths (autoptic findings on dead mice),"[2]; Table 5, 10 mg/kg i.p. day 1",0/10
